Source: patent US20240158392A1 (Janssen Biotech, Inc., priority 2021, published 2024)

What follows are compounds tested against SIK2 (Homo sapiens, UniProt Q9H0K1) (assay: SIK2 Enzymatic Assay High Version 2 (High ATP)). Settings: not given.
SIK2, sequence (Q9H0K1 whole entry, species assumed): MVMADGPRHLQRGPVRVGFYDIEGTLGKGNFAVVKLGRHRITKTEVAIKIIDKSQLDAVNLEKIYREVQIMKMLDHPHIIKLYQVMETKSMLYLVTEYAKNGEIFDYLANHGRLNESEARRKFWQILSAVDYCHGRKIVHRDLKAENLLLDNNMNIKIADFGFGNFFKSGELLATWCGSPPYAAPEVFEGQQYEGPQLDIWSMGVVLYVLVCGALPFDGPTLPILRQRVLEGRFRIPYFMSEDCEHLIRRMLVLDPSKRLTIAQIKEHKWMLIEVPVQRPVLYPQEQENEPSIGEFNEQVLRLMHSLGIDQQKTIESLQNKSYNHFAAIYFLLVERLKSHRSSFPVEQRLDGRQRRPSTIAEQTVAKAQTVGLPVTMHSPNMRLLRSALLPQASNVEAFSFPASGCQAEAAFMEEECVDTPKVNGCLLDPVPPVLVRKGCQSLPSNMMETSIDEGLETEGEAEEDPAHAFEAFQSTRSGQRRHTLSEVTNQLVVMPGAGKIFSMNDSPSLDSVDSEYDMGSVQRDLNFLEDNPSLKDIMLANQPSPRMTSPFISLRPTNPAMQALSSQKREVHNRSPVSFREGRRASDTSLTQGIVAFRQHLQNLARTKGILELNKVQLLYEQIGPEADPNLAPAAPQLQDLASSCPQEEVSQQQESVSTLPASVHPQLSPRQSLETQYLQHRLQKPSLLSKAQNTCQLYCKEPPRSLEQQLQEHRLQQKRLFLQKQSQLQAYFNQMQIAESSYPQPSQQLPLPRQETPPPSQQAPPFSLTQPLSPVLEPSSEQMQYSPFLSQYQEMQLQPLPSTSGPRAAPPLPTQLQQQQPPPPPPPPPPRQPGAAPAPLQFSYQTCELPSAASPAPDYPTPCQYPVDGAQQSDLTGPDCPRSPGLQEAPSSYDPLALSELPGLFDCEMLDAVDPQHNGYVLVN
Type: biochemical
In short: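 At room temperature, enzyme (6 nM, 2× final) was preincubated with compound for 30 min, then 6 mM ATP and 400 μM HDAC5tide (both 2× final) were added for 2 h. ADP formed was measured by ADP-Glo Max (2 h reagent, 1 h detection) using luminescence.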
For `Cc1cc(Nc2cc3cc(-c4cc(Cl)ncc4O[C@@H]4[C@@H]5CO[C@H]4CN5)ccn3n2)nc(C)n1` [Example 495, 5-[2-chloro-5-[[(1S,4S,7R)-2-oxa-5-azabicyclo[2.2.1]heptan-7-yl]oxy]-4-pyridyl]-N-(2,6-dimethylpyrimidin-4-yl)pyrazolo[1,5-a]pyridin-2-amine], the IC50 was 0.0134 µM.
Compound `Cc1cc(-c2cn3cc(NC(=O)C4CC4)nc3cn2)c(O[C@H]2C[C@H]3COC[C@@H](C2)N3)cn1` [Example 505, N-[6-[2-methyl-5-[[(1S,5R)-3-oxa-9-azabicyclo[3.3.1]nonan-7-yl]oxy]-4-pyridyl]imidazo[1,2-a]pyrazin-2-yl]cyclopropanecarboxamide] has an IC50 of 0.012 µM.
`Cc1cc(-c2ccn3nc(NC(=O)C4CC4)cc3c2)c(OC[C@@H]2CCN2C)cn1` [Example 512, N-[5-[2-methyl-5-[[(2S)-1-methylazetidin-2-yl]methoxy]-4-pyridyl]pyrazolo[1,5-a]pyridin-2-yl]cyclopropanecarboxamide] was tested, and the IC50 was 0.0347 µM.
`Cc1cc(-c2ccn3nc(Nc4cccnn4)cc3c2)c(O[C@H]2C[C@H]3CC[C@@H](C2)N3C)cn1` [Example 514, 5-[2-methyl-5-[[(1S,5R)-8-methyl-8-azabicyclo[3.2.1]octan-3-yl]oxy]-4-pyridyl]-N-pyridazin-3-yl-pyrazolo[1,5-a]pyridin-2-amine] gave an IC50 of 0.0303 µM.
Compound `Cc1cc(-c2ccn3nc(NC(=O)C4CC4)cc3c2)c(O[C@H]2C[C@@](C)(N)C2)cn1` [Example 517, N-[5-[5-(3-amino-3-methyl-cyclobutoxy)-2-methyl-4-pyridyl]pyrazolo[1,5-a]pyridin-2-yl]cyclopropanecarboxamide] has an IC50 of 0.016 µM.
Compound `Cc1cc(-c2ccn3nc(Nc4cc(C)nc(C)n4)cc3c2)c(OC[C@@H]2CCN2C)cn1` [Example 521, N-(2,6-dimethylpyrimidin-4-yl)-5-[2-methyl-5-[[(2S)-1-methylazetidin-2-yl]methoxy]-4-pyridyl]pyrazolo[1,5-a]pyridin-2-amine] has an IC50 of 0.0607 µM.
Work on `Cc1cc(-c2ccn3nc(Nc4ccc(C)nn4)cc3c2)c(O[C@@H]2[C@@H]3CO[C@H]2CN3)cn1` [Example 523, 5-[2-methyl-5-[[(1S,4S,7R)-2-oxa-5-azabicyclo[2.2.1]heptan-7-yl]oxy]-4-pyridyl]-N-(6-methylpyridazin-3-yl)pyrazolo[1,5-a]pyridin-2-amine] yielded an IC50 of 0.00462 µM.
In the case of `Cc1cc(-c2ccn3nc(Nc4cc(C)nc(C)n4)cc3c2)c(O[C@@H]2[C@@H]3CO[C@H]2CN3)cn1` [Example 524, N-(2,6-dimethylpyrimidin-4-yl)-5-[2-methyl-5-[[(1S,4S,7R)-2-oxa-5-azabicyclo[2.2.1]heptan-7-yl]oxy]-4-pyridyl]pyrazolo[1,5-a]pyridin-2-amine], the IC50 is reported as 0.0203 µM.
With `Cc1cc(-c2ccn3nc(Nc4ccc(C5CC5)nn4)cc3c2)c(O[C@@H]2[C@@H]3CO[C@H]2CN3)cn1` [Example 525, N-(6-cyclopropylpyridazin-3-yl)-5-[2-methyl-5-[[(1S,4S,7R)-2-oxa-5-azabicyclo[2.2.1]heptan-7-yl]oxy]-4-pyridyl]pyrazolo[1,5-a]pyridin-2-amine] the IC50 was 0.0594 µM.
`Cc1cc(-c2ccn3nc(NC(=O)C4CC4)cc3c2)c(OC[C@@H]2CCN2)cn1` [Example 526, N-[5-[5-[[(2S)-azetidin-2-yl]methoxy]-2-methyl-4-pyridyl]pyrazolo[1,5-a]pyridin-2-yl]cyclopropanecarboxamide] showed an IC50 of 0.0198 µM.
`Cc1cc(-c2ccn3nc(Nc4cc(C)nc(C)n4)cc3c2)c(OC[C@H]2CCN2C)cn1` [Example 527, N-(2,6-dimethylpyrimidin-4-yl)-5-[2-methyl-5-[[(2R)-1-methylazetidin-2-yl]methoxy]-4-pyridyl]pyrazolo[1,5-a]pyridin-2-amine] gave an IC50 of 0.0081 µM.
For `Cc1cnc(Nc2cc3cc(-c4cc(C)ncc4O[C@@H]4[C@@H]5CO[C@H]4CN5)ccn3n2)cn1` [Example 528, 5-[2-methyl-5-[[(1S,4S,7R)-2-oxa-5-azabicyclo[2.2.1]heptan-7-yl]oxy]-4-pyridyl]-N-(5-methylpyrazin-2-yl)pyrazolo[1,5-a]pyridin-2-amine], the IC50 was 0.0642 µM.
In the case of `Cc1cc(-c2ccn3nc(NC(=O)C4CC4)cc3c2)c(OC[C@H]2CCN2CCF)cn1` [Example 529, N-[5-[5-[[(2R)-1-(2-fluoroethyl)azetidin-2-yl]methoxy]-2-methyl-4-pyridyl]pyrazolo[1,5-a]pyridin-2-yl]cyclopropanecarboxamide], the IC50 is reported as 0.000963 µM.

Same assay, conditions: enzyme 6 nM, 6 mM ATP and 400 μM HDAC5tide (each 2× final concentration); 30 minutes pre-incubation, 2 hours; ADP-Glo Max luminescence; read-out: SIK2 high ATP IC50 (μM) (Test Example 2)
In the case of `Cc1cc(Nc2cc3cc(-c4cc(C(F)(F)F)ncc4OCC(C)(C)C#N)ccn3n2)nc(C)n1` [Example 494, 3-[[4-[2-[(2,6-dimethylpyrimidin-4-yl)amino]pyrazolo[1,5-a]pyridin-5-yl]-6-(trifluoromethyl)-3-pyridyl]oxy]-2,2-dimethyl-propanenitrile], the IC50 is reported as 0.00254 µM.
With `COc1cc(-c2ccn3nc(Nc4cc(C)nc(C)n4)cc3c2)c(OC[C@@H]2CNCCO2)cn1` [Example 496, N-(2,6-dimethylpyrimidin-4-yl)-5-[2-methoxy-5-[[(2S)-morpholin-2-yl]methoxy]-4-pyridyl]pyrazolo[1,5-a]pyridin-2-amine] the IC50 was 0.00143 µM.
Work on `Cc1cc(Nc2cc3cc(-c4cc(Cl)ncc4OC[C@@H]4CNCCO4)ccn3n2)nc(C)n1` [Example 497, 5-[2-chloro-5-[[(2S)-morpholin-2-yl]methoxy]-4-pyridyl]-N-(2,6-dimethylpyrimidin-4-yl)pyrazolo[1,5-a]pyridin-2-amine] yielded an IC50 of 0.0176 µM.
`COc1cc(-c2ccn3nc(Nc4cc(C)nc(C)n4)cc3c2)c(OC[C@H]2OCC[C@@H]2O)cn1` [Example 498, (2R,3S)-2-[[4-[2-[(2,6-dimethylpyrimidin-4-yl)amino]pyrazolo[1,5-a]pyridin-5-yl]-6-methoxy-3-pyridyl]oxymethyl]tetrahydrofuran-3-ol] showed an IC50 of 0.0414 µM.
For `Cc1cc(Nc2cc3cc(-c4cc(OCC(F)(F)F)ncc4OC[C@H]4OCC[C@@H]4O)ccn3n2)nc(C)n1` [Example 499, (2R,3S)-2-[[4-[2-[(2,6-dimethylpyrimidin-4-yl)amino]pyrazolo[1,5-a]pyridin-5-yl]-6-(2,2,2-trifluoroethoxy)-3-pyridyl]oxymethyl]tetrahydrofuran-3-ol], the IC50 was 0.00352 µM.
With `Cc1cc(Nc2cc3cc(-c4cc(OCC#N)ncc4OC[C@H]4OCC[C@@H]4O)ccn3n2)nc(C)n1` [Example 500, 2-[[4-[2-[(2,6-dimethylpyrimidin-4-yl)amino]pyrazolo[1,5-a]pyridin-5-yl]-5-[[(2R,3S)-3-hydroxytetrahydrofuran-2-yl]methoxy]-2-pyridyl]oxy]acetonitrile] the IC50 was 0.0454 µM.
Work on `CNc1cc(-c2ccn3nc(Nc4cc(C)nc(C)n4)cc3c2)c(OC[C@@H]2CNCCO2)cn1` [Example 501, N-(2,6-dimethylpyrimidin-4-yl)-5-[2-(methylamino)-5-[[(2S)-morpholin-2-yl]methoxy]-4-pyridyl]pyrazolo[1,5-a]pyridin-2-amine] yielded an IC50 of 0.00172 µM.
Work on `Cc1cc(Nc2cc3cc(-c4cc(OC(F)F)ncc4OC[C@@H]4CNCCO4)ccn3n2)nc(C)n1` [Example 502, 5-[2-(difluoromethoxy)-5-[[(2S)-morpholin-2-yl]methoxy]-4-pyridyl]-N-(2,6-dimethylpyrimidin-4-yl)pyrazolo[1,5-a]pyridin-2-amine] yielded an IC50 of 0.00682 µM.
With `Cc1cc(-c2ccc3nc(NC(=O)C4CC4)cn3c2)c(O[C@H]2CC[C@H](O)CC2)cn1` [Example 504, N-[6-[5-(4-hydroxycyclohexoxy)-2-methyl-4-pyridyl]imidazo[1,2-a]pyridin-2-yl]cyclopropanecarboxamide] the IC50 was under 0.000847 µM.
For `Cc1cc(-c2cn3cc(Nc4cc(C)nc(C)n4)nc3cn2)c(O[C@H]2CC[C@@H](O)CC2)cn1` [Example 506, 4-[[4-[2-[(2,6-dimethylpyrimidin-4-yl)amino]imidazo[1,2-a]pyrazin-6-yl]-6-methyl-3-pyridyl]oxy]cyclohexanol], the IC50 was 0.0178 µM.
Compound `Cc1cc(-c2cn3cc(Nc4cc(C)nc(C)n4)nc3cn2)c(O[C@H]2CC[C@H](O)CC2)cn1` [Example 507, 4-[[4-[2-[(2,6-dimethylpyrimidin-4-yl)amino]imidazo[1,2-a]pyrazin-6-yl]-6-methyl-3-pyridyl]oxy]cyclohexanol] has an IC50 of 0.0297 µM.
Work on `Cc1cc(-c2ccn3nc(NC(=O)C4CC4)cc3c2)c(O[C@H]2CNC2(C)C)cn1` [Example 510, N-[5-[5-[(3S)-2,2-dimethylazetidin-3-yl]oxy-2-methyl-4-pyridyl]pyrazolo[1,5-a]pyridin-2-yl]cyclopropanecarboxamide] yielded an IC50 of 0.0614 µM.
In the case of `Cc1cc(-c2ccn3nc(Nc4cnn(C(C)C)c4)cc3c2)c(OC2CN(C)C2)cn1` [Example 511, N-(1-isopropylpyrazol-4-yl)-5-[2-methyl-5-(1-methylazetidin-3-yl)oxy-4-pyridyl]pyrazolo[1,5-a]pyridin-2-amine], the IC50 is reported as 0.0683 µM.
`Cc1cc(-c2ccn3nc(Nc4cccnn4)cc3c2)c(OC[C@@H]2CN[C@H](C)CO2)cn1` [Example 513, 5-[2-methyl-5-[[(2S,5R)-5-methylmorpholin-2-yl]methoxy]-4-pyridyl]-N-pyridazin-3-yl-pyrazolo[1,5-a]pyridin-2-amine] gave an IC50 of 0.0275 µM.
`Cc1cc(-c2ccn3nc(Nc4cnccn4)cc3c2)c(OC[C@@H]2CN(C)CCO2)cn1` [Example 515, 5-[2-methyl-5-[[(2S)-4-methylmorpholin-2-yl]methoxy]-4-pyridyl]-N-pyrazin-2-yl-pyrazolo[1,5-a]pyridin-2-amine] was tested, and the IC50 was 0.000864 µM.
`Cc1cc(-c2ccn3nc(Nc4cccnn4)cc3c2)c(OC[C@@H]2CNCC(C)(C)O2)cn1` [Example 518, 5-[5-[[(2S)-6,6-dimethylmorpholin-2-yl]methoxy]-2-methyl-4-pyridyl]-N-pyridazin-3-yl-pyrazolo[1,5-a]pyridin-2-amine] was tested, and the IC50 was 0.0559 µM.
With `Cc1cc(-c2ccn3nc(Nc4cccnn4)cc3c2)c(O[C@H]2C[C@H](N)C2)cn1` [Example 520, 5-[5-(3-aminocyclobutoxy)-2-methyl-4-pyridyl]-N-pyridazin-3-yl-pyrazolo[1,5-a]pyridin-2-amine] the IC50 was 0.0445 µM.
